Results reported in ChEMBL document CHEMBL1201862, “PubChem BioAssay data set” (2004).
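1) Cells in 96-well plates. 2) Compound, 48 h, 5 concentrations. 3) Linear interpolation between surrounding doses. 4) Unreached endpoint = highest concentration. GI50 marks 50% less growth.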 Calls of active or inactive are those of the source. Cut-off read from the data, not from the text of the source: active = GI50 up to about 1.1 µM and inactive = higher.

What was measured:
Test in all cases: inhibition of tumour cell growth, NCI panel, 48 h
M14 = test system: M14
XF498 = test system: XF498
UO-31 = test system: UO-31
OVCAR-4 = test system: OVCAR-4
SW-620 = test system: SW-620
786-0 = test system: 786-0
M19-MEL = test system: M19-MEL
KM-20L2 = test system: KM-20L2
LOX IMVI = test system: LOX IMVI
U-251 = test system: U-251
NCI-H460 = test system: NCI-H460
ACHN = test system: ACHN
K562 = test system: K562
CAKI-1 = test system: CAKI-1
HCC 2998 = test system: HCC 2998
RPMI-8226 = test system: RPMI-8226
COLO 205 = test system: COLO 205
HCT-116 = test system: HCT-116
HOP-18 = test system: HOP-18
HOP-92 = test system: HOP-92
SK-MEL-2 = test system: SK-MEL-2
DMS-114 = test system: DMS-114
SF-539 = test system: SF-539
DMS-273 = test system: DMS-273
A549 = test system: A549
UACC-257 = test system: UACC-257
HL-60 = test system: HL-60
CCRF-CEM = test system: CCRF-CEM
OVCAR-8 = test system: OVCAR-8
SR = test system: SR
EKVX = test system: EKVX
SN12C = test system: SN12C
LXFL 529 = test system: LXFL 529
OVCAR-5 = test system: OVCAR-5
SF-295 = test system: SF-295
SF-268 = test system: SF-268
Malme-3M = test system: Malme-3M
SNB-75 = test system: SNB-75
SK-MEL-28 = test system: SK-MEL-28
DLD-1 = test system: DLD-1
SNB-78 = test system: SNB-78
NCI-H522 = test system: NCI-H522
HCT-15 = test system: HCT-15
IGROV-1 = test system: IGROV-1
SK-OV-3 = test system: SK-OV-3
UACC-62 = test system: UACC-62
NCI-H23 = test system: NCI-H23
HOP-62 = test system: HOP-62
TK-10 = test system: TK-10
OVCAR-3 = test system: OVCAR-3
NCI-H226 = test system: NCI-H226
KM12 = test system: KM12
SNB-19 = test system: SNB-19
RXF 393 = test system: RXF 393
HT-29 = test system: HT-29
A498 = test system: A498
MOLT-4 = test system: MOLT-4
SK-MEL-5 = test system: SK-MEL-5

## CN(C)CCCSc1c2ccccc2nc2cc(NCC(=O)Nc3ccccc3-c3ccccc3NC(=O)CNc3ccc4c(SCCCN(C)C)c5ccccc5nc4c3)ccc12
M14
  GI50: > 100 µM (inactive)
XF498
  GI50: 71.8 µM (inactive)
UO-31
  GI50: > 100 µM (inactive)
OVCAR-4
  GI50: > 100 µM (inactive)
SW-620
  GI50: > 100 µM (inactive)
786-0
  GI50: > 100 µM (inactive)
M19-MEL
  GI50: 49.7 µM (inactive)
KM-20L2
  GI50: > 100 µM (inactive)
LOX IMVI
  GI50: > 100 µM (inactive)
U-251
  GI50: > 100 µM (inactive)
NCI-H460
  GI50: > 100 µM (inactive)
ACHN
  GI50: > 100 µM (inactive)
K562
  GI50: 71.4 µM (inactive)
CAKI-1
  GI50: > 100 µM (inactive)
HCC 2998
  GI50: > 100 µM (inactive)
RPMI-8226
  GI50: 65 µM (inactive)
COLO 205
  GI50: 45.1 µM (inactive)
HCT-116
  GI50: > 100 µM (inactive)
HOP-18
  GI50: > 100 µM (inactive)
HOP-92
  GI50: > 100 µM (inactive)
SK-MEL-2
  GI50: > 100 µM (inactive)
DMS-114
  GI50: > 100 µM (inactive)
SF-539
  GI50: > 100 µM (inactive)
DMS-273
  GI50: > 100 µM (inactive)
A549
  GI50: > 100 µM (inactive)
UACC-257
  GI50: > 100 µM (inactive)
HL-60
  GI50: 18.3 µM (inactive)
CCRF-CEM
  GI50: 25.3 µM (inactive)
OVCAR-8
  GI50: > 100 µM (inactive)
SR
  GI50: > 100 µM (inactive)
EKVX
  GI50: > 100 µM (inactive)
SN12C
  GI50: > 100 µM (inactive)
LXFL 529
  GI50: > 100 µM (inactive)
OVCAR-5
  GI50: > 100 µM (inactive)
SF-295
  GI50: > 100 µM (inactive)
SF-268
  GI50: > 100 µM (inactive)
Malme-3M
  GI50: 59.4 µM (inactive)
SNB-75
  GI50: > 100 µM (inactive)
SK-MEL-28
  GI50: > 100 µM (inactive)
DLD-1
  GI50: > 100 µM (inactive)
SNB-78
  GI50: > 100 µM (inactive)
NCI-H522
  GI50: > 100 µM (inactive)
HCT-15
  GI50: > 100 µM
IGROV-1
  GI50: > 100 µM (inactive)
SK-OV-3
  GI50: > 100 µM (inactive)
UACC-62
  GI50: > 100 µM (inactive)
NCI-H23
  GI50: > 100 µM (inactive)
HOP-62
  GI50: > 100 µM (inactive)
TK-10
  GI50: > 100 µM (inactive)
OVCAR-3
  GI50: > 100 µM (inactive)
NCI-H226
  GI50: > 100 µM (inactive)
KM12
  GI50: 84.3 µM (inactive)
SNB-19
  GI50: > 100 µM (inactive)
RXF 393
  GI50: > 100 µM (inactive)
HT-29
  GI50: > 100 µM (inactive)
A498
  GI50: > 100 µM (inactive)
MOLT-4
  GI50: 26.5 µM (inactive)
SK-MEL-5
  GI50: > 100 µM (inactive)

## O=C(Nc1ccc(Cl)c(Cl)c1)C(=O)Nn1c(S)nc2ccccc2c1=O
M14
  GI50: > 100 µM (inactive)
XF498
  GI50: > 100 µM (inactive)
UO-31
  GI50: > 100 µM (inactive)
OVCAR-4
  GI50: > 100 µM (inactive)
SW-620
  GI50: > 100 µM (inactive)
786-0
  GI50: > 100 µM (inactive)
M19-MEL
  GI50: > 100 µM (inactive)
KM-20L2
  GI50: > 100 µM (inactive)
LOX IMVI
  GI50: > 100 µM (inactive)
U-251
  GI50: > 100 µM (inactive)
NCI-H460
  GI50: > 100 µM (inactive)
ACHN
  GI50: > 100 µM (inactive)
K562
  GI50: > 100 µM (inactive)
CAKI-1
  GI50: > 100 µM (inactive)
HCC 2998
  GI50: > 100 µM (inactive)
RPMI-8226
  GI50: > 100 µM (inactive)
COLO 205
  GI50: > 100 µM (inactive)
HCT-116
  GI50: > 100 µM (inactive)
HOP-18
  GI50: > 100 µM (inactive)
HOP-92
  GI50: 45.3 µM (inactive)
SK-MEL-2
  GI50: > 100 µM (inactive)
DMS-114
  GI50: > 100 µM (inactive)
SF-539
  GI50: > 100 µM (inactive)
DMS-273
  GI50: > 100 µM (inactive)
A549
  GI50: > 100 µM (inactive)
UACC-257
  GI50: > 100 µM (inactive)
HL-60
  GI50: > 100 µM (inactive)
CCRF-CEM
  GI50: > 100 µM (inactive)
OVCAR-8
  GI50: > 100 µM (inactive)
SR
  GI50: > 100 µM (inactive)
EKVX
  GI50: > 100 µM (inactive)
SN12C
  GI50: > 100 µM (inactive)
LXFL 529
  GI50: > 100 µM (inactive)
OVCAR-5
  GI50: > 100 µM (inactive)
SF-295
  GI50: > 100 µM (inactive)
SF-268
  GI50: > 100 µM (inactive)
Malme-3M
  GI50: > 100 µM (inactive)
SNB-75
  GI50: > 100 µM (inactive)
SK-MEL-28
  GI50: > 100 µM (inactive)
DLD-1
  GI50: > 100 µM (inactive)
SNB-78
  GI50: > 100 µM (inactive)
NCI-H522
  GI50: > 100 µM (inactive)
HCT-15
  GI50: > 100 µM
IGROV-1
  GI50: > 100 µM (inactive)
SK-OV-3
  GI50: > 100 µM (inactive)
UACC-62
  GI50: > 100 µM (inactive)
NCI-H23
  GI50: 76.9 µM (inactive)
HOP-62
  GI50: > 100 µM (inactive)
TK-10
  GI50: > 100 µM (inactive)
NCI-H226
  GI50: > 100 µM (inactive)
KM12
  GI50: > 100 µM (inactive)
SNB-19
  GI50: > 100 µM (inactive)
RXF 393
  GI50: > 100 µM (inactive)
HT-29
  GI50: > 100 µM (inactive)
A498
  GI50: > 100 µM (inactive)
MOLT-4
  GI50: > 100 µM (inactive)
SK-MEL-5
  GI50: > 100 µM (inactive)
